One molecule from US7951374B2, “Methods for inhibiting STAT3 signaling in immune cells” (University of South Florida, priority 2004, dated 2011) can be followed below.

Data set [1] concerns phosphorylated Stat1. The experiment in a line: Stat1P levels in tumor-infiltrating DCs after intravenous CPA-7, intracellular flow cytometry. Particulars: 24 hours after intravenous injection (FIG. 33). It counts as in vivo, mouse. As for the experimental part: (§1) Isolation of tumor-infiltrating immune cell subsets and intracellular staining of signaling molecules. Freshly excised tumor tissues were gently minced into small pieces and incubated in 400 U/ml of collagenase D (Roche) solution for 30 minutes at 37° C. Cell suspensions were filtered through a mesh filter for isolation of various immune cell subsets using specific antibodies in combination with EASYSEP magnetic nanoparticles (StemCell Technologies, Canada). Isolated tumor-infiltrating cells were fixed in paraformaldehyde and permeated in methanol before intracellular staining with antibodies to phosphotyrosine-Stat3 and Stat1 (BD Biosciences) or with Foxp3-specific antibody (eBiosciences). Fluorescence data was collected on FACSCalibur (Beckton Dickinson) and analyzed using FlowJo software (Tree Star).
(§2) To further characterize activation of CPA-7 treated immune cells, Phospho-Stat3 (Stat3P) levels in tumor-infiltrating DCs were assessed 24 hours after intravenous injection with vehicle or CPA-7 and compared to splenic CD11c^+ cells from tumor-free Stat3^+/+ mice. […] Also shown in FIG. 33, CPA-7 treated tumor-infiltrating DCs have increased phosphorylated Stat1.

Data set [2] addresses T1, Phospho-Stat3 (Stat3P) (Mus musculus, UniProt P42227).
T1 construct: from tissue; host or cells: tumor-infiltrating dendritic cells from MB49 tumors of mice
The experiment in a line: Phospho-Stat3 levels in MB49 tumor-infiltrating DCs after intravenous CPA-7, intracellular flow cytometry. It counts as in vivo. Particulars: 24 hours after intravenous injection, compared to vehicle-treated mice (FIG. 33). As for the experimental part:
as §1, §2

For data set [3], the system named is MB49, B16 or C4 tumor cells. As to the kind of experiment: Lung tumor nodules after intravenous tumor cell injection and CPA-7 treatment. The class given is in vivo, mouse. To be noted: 5×10^4 MB49, B16 or C4 cells i.v., CPA-7 5 mg/kg twice weekly, day 21 (FIG. 38). Here is the method: Mice were injected intravenously with 5×10^4 MB49, B16 or C4 tumor cells, followed by twice weekly treatment with CPA-7 (5 mg/kg) or vehicle (10% DMSO). Lung colonies were enumerated 21 days later, when control mice became moribund.
To visualize lung tumor nodules, lungs were fixed and bleached in Fekete's solution with or without India ink as a counterstain.

Data set [4] has as its target T2, Stat3 (Mus musculus, UniProt P42227).
T2 construct: endogenous in cells; host or cells: mouse DC2.4 dendritic cells
As to the kind of experiment: EMSA of Stat DNA binding in DC2.4 dendritic cells preincubated with CPA-7 (Stat3). It counts as cell-based. To be noted: DC2.4 cells, 10 μm CPA-7 overnight, then 20 ng/ml IL-6 for 20 minutes, EMSA (FIG. 32). Here is the method:
Mouse DC2.4 dendritic cells were preincubated with 10 μm CPA-7 overnight and then stimulated for 20 minutes with 20 ng/ml IL-6 (activator of both Stat3 and Stat1), 500 U/ml IFN-γ (activator of […]) or 20 ng/ml GM-CSF (activator of Stat5). After cell lysis, nuclear extracts were prepared and EMSA was conducted to detect DNA binding.

Data set [5] concerns MB49 tumor cells. As to the kind of experiment: CPA-7-induced tumor-cell apoptosis in vitro by annexin V staining. The class given is cell-based, mouse. To be noted: annexin V staining (FIG. 31). As for the experimental part: Cell lines. Mouse B16 melanoma, YAC-1 and P815 target cells were purchased from American Type Culture Collection. MB49 bladder carcinoma and C4 mouse melanoma lines were gifts from T. Ratliff (University of Iowa) and J. Fidler (M.D. Anderson Cancer Center), respectively.
Flow cytometry. Single-cell suspensions were prepared by mechanic dispersion of spleen or tumor tissues. 1×10^6 freshly prepared cells suspended in a mixture of PBS, 2% FCS and 0.1% (wt/vol) sodium azide were preincubated with FcγIII/IIR-specific antibody to block nonspecific binding and cells were stained with different combinations of fluorochrome-coupled antibodies to CD11c, I-A^b (MHC class II), CD86, CD11b, Gr1, CD49b, CD3, CD25 or Lag-3, or with annexin V (BD Biosciences). Fluorescence data was collected on FACSCalibur (Beckton Dickinson) and analyzed using FlowJo software (Tree Star).
The effects of blocking Stat3 in immune cells with CPA-7, a small-molecule Stat3 inhibitor, were assessed. For these experiments, both B16 and MB49 tumor cells were used. In contrast to B16, MB49 tumor cells are insensitive to CPA-7-induced tumor-cell apoptosis, as determined by annexin V staining.

Data set [6] relates to MB49 tumors. The experiment in a line: Growth of established MB49 tumors in mice treated with CPA-7. The class given is in vivo, mouse. As for the experimental part:
For CPA-7 treatment, MB49 tumors were implanted into male C57BL/6 mice and tumors were allowed to grow until 5-7 mm in diameter. Mice were given intravenous injections of either vehicle (10% DMSO/PBS) or 5 mg/kg CPA-7 once every 3 days.
Mice with MB49 tumors (about 6 mm in diameter) received intravenous injections of either vehicle or CPA-7.
Mice with established MB49 tumors were treated with vehicle or CPA-7 in combination with control or asialo GM1-specific antibody.

In data set [7] the test system is YAC-1 cells. The experiment in a line: 51Cr-release assay of NK cell cytotoxicity from tumor-bearing mice treated with CPA-7. It counts as in vivo, mouse. To be noted: NK cells from tumor-bearing mice treated with CPA-7, YAC-1 targets (FIG. 35). Here is the method:
Cytotoxicity assays. NK cell and neutrophil cytotoxicity assays were performed as described by Wei, S. et al., J. Exp. Med. 187, 1753-1765 (1998), which is incorporated herein by reference. Briefly, a 4-hour ^51Cr-release assay was carried out using YAC-1 cells as targets for enriched NK cells or FcγR^+ mouse mastocytoma (P815) cells as targets for enriched neutrophils. Cytotoxicity of CPA-7-treated NK cells from tumor-bearing hosts was assessed using a standard ^51Cr-release assay with YAC-1 cells as targets, as described in Example 1.

A short description of data set [8]: Immunohistochemical analysis of colon sections for autoimmune pathology. It counts as in vivo, mouse. Particulars: tumor-bearing Stat3+/+ and Stat3−/− mice, CPA-7 every third day for three weeks (FIG. 30). Here is the method: Transverse colon sections were stained with hematoxylin-eosin and antibodies to CD4, CD8 or CD11b. Staining with rat IgG was used as a negative control.
Colons from tumor free Stat3^−/− mice were evaluated for autoimmune effects at 20 weeks after Stat3 deletion by immunohistochemical analysis. […] In contrast, there was virtually no evidence of systemic autoimmunity at 4 weeks after induced depletion in tumor-bearing Stat3^+/+ and Stat3^−/− mice (FIG. 29).

Each structure is given as a SMILES string.

T2 sequence (P42227 whole entry): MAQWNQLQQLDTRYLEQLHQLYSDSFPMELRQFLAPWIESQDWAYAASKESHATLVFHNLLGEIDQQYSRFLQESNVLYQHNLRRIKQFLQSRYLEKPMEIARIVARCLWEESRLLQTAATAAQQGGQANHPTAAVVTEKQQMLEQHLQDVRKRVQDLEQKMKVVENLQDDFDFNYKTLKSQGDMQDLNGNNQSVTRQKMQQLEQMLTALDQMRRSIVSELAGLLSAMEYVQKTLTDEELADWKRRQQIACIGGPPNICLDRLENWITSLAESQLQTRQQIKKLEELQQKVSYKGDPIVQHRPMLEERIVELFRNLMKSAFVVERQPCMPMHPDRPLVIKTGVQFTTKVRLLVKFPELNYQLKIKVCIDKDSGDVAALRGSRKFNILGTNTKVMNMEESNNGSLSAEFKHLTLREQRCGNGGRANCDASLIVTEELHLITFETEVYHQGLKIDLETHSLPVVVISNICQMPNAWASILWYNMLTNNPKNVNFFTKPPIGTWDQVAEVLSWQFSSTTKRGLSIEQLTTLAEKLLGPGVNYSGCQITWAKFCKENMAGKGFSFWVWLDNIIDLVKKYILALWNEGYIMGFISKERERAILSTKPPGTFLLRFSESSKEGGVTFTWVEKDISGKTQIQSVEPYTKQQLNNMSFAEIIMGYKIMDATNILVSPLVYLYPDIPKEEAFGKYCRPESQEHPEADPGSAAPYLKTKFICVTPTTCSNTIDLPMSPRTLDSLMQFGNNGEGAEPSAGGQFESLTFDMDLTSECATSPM
T1 sequence (P42227 whole entry): as above

As to `[NH2][Pt]([NH2])([Cl])([Cl])([Cl])[N+](=O)[O-]` [CPA-7], the “phosphorylated Stat1 in tumor-infiltrating DCs” value in data set [1] was “increased”. Also, the “phosphorylated Stat3 in tumor-infiltrating DCs” value in data set [2] was “considerably reduced”. For the same molecule, the lung tumor nodules result in data set [3] is “significantly reduced or completely abrogated”. Also, the “inhibition of Stat3 DNA binding” value in data set [4] is listed as “inhibits Stat3”. For the same molecule, the “sensitivity to CPA-7-induced tumor-cell apoptosis” value in data set [5] was “insensitive”. Besides, the “growth of established tumors” value in data set [6] (MB49 tumors about 6 mm in diameter, intravenous CPA-7 5 mg/kg once every 3 days (FIG. 34)) is given as “inhibits the growth of established tumors”. Further, the “CPA-7-induced tumor growth inhibition in the absence of CD4+ and CD8+ T cells” value in data set [6] (MB49 tumors, antibodies to CD4 and CD8 (FIG. 34)) was “abrogated”. Moreover, the “in vivo antitumor effects of CPA-7 treatment with NK depletion” value in data set [6] (established MB49 tumors, asialo GM1-specific antibody (FIG. 36)) is on record as “partially abrogates”. The “NK cell activity (cytotoxicity)” value in data set [7] is reported as “increased”. Besides, in data set [8], the “pathologic changes in colons” value is “lack of pathologic changes”.
